Assay results from US20190048016A1, “SUBSTITUTED BRIDGED UREA ANALOGS AS SIRTUIN MODULATORS” (GlaxoSmithKline Intellectual Property(No.2)Limited, priority 2014, published 2019).

Target: T1, SIRT1 (Homo sapiens, UniProt Q96EB6)
T1 sequence (Q96EB6 1-747): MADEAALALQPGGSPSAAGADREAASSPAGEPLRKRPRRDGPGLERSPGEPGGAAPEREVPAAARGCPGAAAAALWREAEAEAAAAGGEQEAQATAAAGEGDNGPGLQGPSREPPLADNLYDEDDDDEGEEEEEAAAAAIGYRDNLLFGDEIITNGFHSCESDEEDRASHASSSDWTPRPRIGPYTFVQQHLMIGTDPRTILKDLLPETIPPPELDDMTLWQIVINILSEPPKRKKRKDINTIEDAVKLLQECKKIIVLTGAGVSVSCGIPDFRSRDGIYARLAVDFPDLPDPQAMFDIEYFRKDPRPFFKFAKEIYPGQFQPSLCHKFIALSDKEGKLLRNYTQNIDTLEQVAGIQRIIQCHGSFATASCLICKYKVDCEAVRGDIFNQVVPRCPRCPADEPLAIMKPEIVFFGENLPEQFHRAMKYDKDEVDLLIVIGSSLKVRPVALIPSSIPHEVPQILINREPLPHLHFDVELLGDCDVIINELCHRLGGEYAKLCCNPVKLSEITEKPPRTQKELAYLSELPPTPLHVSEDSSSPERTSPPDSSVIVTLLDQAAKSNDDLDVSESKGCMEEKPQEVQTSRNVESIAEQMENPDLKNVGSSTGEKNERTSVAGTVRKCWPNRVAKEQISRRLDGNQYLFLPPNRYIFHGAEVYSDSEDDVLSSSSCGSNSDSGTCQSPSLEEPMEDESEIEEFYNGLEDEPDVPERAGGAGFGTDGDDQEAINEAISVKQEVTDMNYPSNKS
Test: Trp mass spectrometry assay of SIRT1 activation (deacetylation of Ac-R-H-K-K(Ac)-W-NH2 peptide, OAADPR formation)
Format: biochemical
Conditions: Trp peptide 0.5 μM, 120 μM βNAD+, 10 nM SIRT1, 25 min, 25° C.; for Emax: 25 min, read-out: TRP MAX RESP (percent maximum fold activation relative to control = 100%)
Source text: Mass spectrometry based assays were used to identify modulators of SIRT1 activity. The TAMRA based assay utilized a peptide having 20 amino acid residues as follows: Ac-EE-K(biotin)-[…](Ac)NleSTEG-K(5TMR)-EE-NH2 (SEQ ID NO: 1), wherein K(Ac) is an acetylated lysine residue and Nle is a norleucine. The peptide was labeled with the fluorophore 5TMR (excitation 540 nm/emission 580 nm) at the C-terminus. The sequence of the peptide substrate was based on p53 with several modifications. In addition, the methionine residue naturally present in the sequence was replaced with the norleucine because the methionine may be susceptible to oxidation during synthesis and purification. The Trp based assay utilized a peptide having an amino acid residues as follows: Ac-R-H-K-K(Ac)-W-NH2 (SEQ ID NO: 2).
The Trp mass spectrometry assay was conducted as follows. 0.5 μM peptide substrate and 120 μM βNAD^+ were incubated with 10 nM SIRT1 for 25 minutes at 25° C. in a reaction buffer (50 mM HEPES pH 7.5, […], 1 mM DTT, 0.05% BSA). The SIRT1 protein was obtained by cloning the SirT1 gene into a T7-promoter containing vector, which was then expressed in BL21(DE3) bacterial cells and purified as described in further detail below. Test compound was added at varying concentrations to this reaction mixture and the resulting reactions were monitored. After the 25 minute incubation with SIRT1, 10 μL of 10% formic acid was added to stop the reaction. The resulting reactions were sealed and frozen for later mass spec analysis. The relative SIRT1 activity was then determined by measuring the amount of O-acetyl-ADP-ribose (OAADPR) formed (or, alternatively, the amount of deacetylated Trp peptide generated) by the NAD-dependent sirtuin deacetylation reaction in the presence of varying concentrations of the test compound versus control reactions lacking the test compound. The degree to which the test agent activated deacetylation by SIRT1 was expressed as EC1.5 (i.e., the concentration of compound required to increase SIRT1 activity by 50% over the control lacking test compound), and Percent Maximum Activation (i.e., the maximum activity relative to control (100%) obtained for the test compound).
A control for inhibition of sirtuin activity was conducted by adding 1 μL of 500 mM nicotinamide as a negative control at the start of the reaction (e.g., permits determination of maximum sirtuin inhibition). A control for activation of sirtuin activity was conducted using 10 nM of sirtuin protein, with 1 μL of DMSO in place of compound, to determine the amount of deacetylation of the substrate at a given time point within the linear range of the assay. This time point was the same as that used for test compounds and, within the linear range, the endpoint represents a change in velocity.
For the above assay, SIRT1 protein was expressed and purified as follows. The SirT1 gene was cloned into a T7-promoter containing vector and transformed into BL21(DE3). The protein was expressed by induction with 1 mM IPTG as an N-terminal His-tag fusion protein at 18° C. overnight and harvested at 30,000×g. Cells were lysed with lysozyme in lysis buffer (50 mM Tris-HCl, 2 mM Tris[2-carboxyethyl] phosphine (TCEP), 10 μM ZnCl2, 200 mM NaCl) and further treated with sonication for 10 min for complete lysis. The protein was purified over a Ni-NTA column (Amersham) and fractions containing pure protein were pooled, concentrated and run over a sizing column (Sephadex S200 26/60 global). The peak containing soluble protein was collected and run on an Ion-exchange column (MonoQ). Gradient elution (200 mM-500 mM NaCl) yielded pure protein. This protein was concentrated and dialyzed against dialysis buffer (20 mM Tris-HCl, 2 mM TCEP) overnight. The protein was aliquoted and frozen at −80° C. until further use.
Sirtuin-modulating compounds of Formula (I) that activated SIRT1 were identified using the assay described above and are shown below in Table 1. […]

In the case of `O=C(Nc1cncc(F)c1)N1c2nc(-c3ccnc(C(F)(F)F)c3)ccc2N2CCC[C@H]1C2` [Example 2, (9S)-N-(5-fluoropyridin-3-yl)-2-(2-(trifluoromethyl)pyridin-4-yl)-8,9-dihydro-6H-5,9-methanopyrido[2,3-b][1,4]diazocine-10(7H)-carboxamide], the Emax is reported as at least 150% and the “TRP Activity (EC1.5, concentration of compound required to increase SIRT1 activity by 50% over control)” value is reported as “A (EC1.5<1 μM)”.

`O=C(Nc1cncnc1)N1c2nc(-c3cncc(C(F)(F)F)c3)ccc2N2CCC[C@H]1C2` [Example 3, (9S)-N-(pyrimidin-5-yl)-2-(5-(trifluoromethyl)pyridin-3-yl)-8,9-dihydro-6H-5,9-methanopyrido[2,3-b][1,4]diazocine-10(7H)-carboxamide] was tested, and the Emax was at least 150% and the “TRP Activity (EC1.5, concentration of compound required to increase SIRT1 activity by 50% over control)” value was “A (EC1.5<1 μM)”.

With `Cc1cc(-c2ccc3c(n2)N(C(=O)Nc2ccccn2)[C@H]2CCCN3C2)ccn1` [Example 4, (9S)-2-(2-methylpyridin-4-yl)-N-(pyridin-2-yl)-8,9-dihydro-6H-5,9-methanopyrido[2,3-b][1,4]diazocine-10(7H)-carboxamide] the Emax was at least 150% and the “TRP Activity (EC1.5, concentration of compound required to increase SIRT1 activity by 50% over control)” value was “A (EC1.5<1 μM)”.

In the case of `Cc1cc(-c2ccc3c(n2)N(C(=O)Nc2cncc(F)c2)[C@H]2CCCN3C2)ccn1` [Example 5, (9S)-N-(5-fluoropyridin-3-yl)-2-(2-methylpyridin-4-yl)-8,9-dihydro-6H-5,9-methanopyrido[2,3-b][1,4]diazocine-10(7H)-carboxamide], the Emax is reported as at least 150% and the “TRP Activity (EC1.5, concentration of compound required to increase SIRT1 activity by 50% over control)” value is reported as “A (EC1.5<1 μM)”.

With `O=C(Nc1cccnn1)N1c2nc(-c3ccnc(C(F)(F)F)c3)ccc2N2CCC[C@H]1C2` [Example 6, (9S)-N-(pyridazin-3-yl)-2-(2-(trifluoromethyl)pyridin-4-yl)-8,9-dihydro-6H-5,9-methanopyrido[2,3-b][1,4]diazocine-10(7H)-carboxamide] the Emax was at least 150% and the “TRP Activity (EC1.5, concentration of compound required to increase SIRT1 activity by 50% over control)” value was “A (EC1.5<1 μM)”.

In the case of `O=C(Nc1ccccn1)N1c2nc(-c3ccnc(C(F)(F)F)c3)ccc2N2CCC[C@H]1C2` [Example 7, (9S)-N-(pyridin-2-yl)-2-(2-(trifluoromethyl)pyridin-4-yl)-8,9-dihydro-6H-5,9-methanopyrido[2,3-b][1,4]diazocine-10(7H)-carboxamide], the Emax is reported as at least 150% and the “TRP Activity (EC1.5, concentration of compound required to increase SIRT1 activity by 50% over control)” value is reported as “A (EC1.5<1 μM)”.

`O=C(Nc1ccncn1)N1c2nc(-c3ccnc(C(F)(F)F)c3)ccc2N2CCC[C@H]1C2` [Example 9, (9S)-N-(pyrimidin-4-yl)-2-(2-(trifluoromethyl)pyridin-4-yl)-8,9-dihydro-6H-5,9-methanopyrido[2,3-b][1,4]diazocine-10(7H)-carboxamide] was tested, and the Emax was at least 150% and the “TRP Activity (EC1.5, concentration of compound required to increase SIRT1 activity by 50% over control)” value was “A (EC1.5<1 μM)”.

With `O=C(Nc1cncnc1)N1c2nc(-c3ccnc(C(F)(F)F)c3)ccc2N2CCC[C@H]1C2` [Example 10, (9S)-N-(pyrimidin-5-yl)-2-(2-(trifluoromethyl)pyridin-4-yl)-8,9-dihydro-6H-5,9-methanopyrido[2,3-b][1,4]diazocine-10(7H)-carboxamide] the Emax was at least 150% and the “TRP Activity (EC1.5, concentration of compound required to increase SIRT1 activity by 50% over control)” value was “A (EC1.5<1 μM)”.

In the case of `Cc1cc(-c2ccc3c(n2)N(C(=O)Nc2ccncn2)[C@H]2CCCN3C2)ccn1` [Example 12, (9S)-2-(2-methylpyridin-4-yl)-N-(pyrimidin-4-yl)-8,9-dihydro-6H-5,9-methanopyrido[2,3-b][1,4]diazocine-10(7H)-carboxamide], the Emax is reported as at least 150% and the “TRP Activity (EC1.5, concentration of compound required to increase SIRT1 activity by 50% over control)” value is reported as “A (EC1.5<1 μM)”.

With `Cc1cc(-c2ccc3c(n2)N(C(=O)Nc2cnccn2)[C@H]2CCCN3C2)ccn1` [Example 13, (9S)-2-(2-methylpyridin-4-yl)-N-(pyrazin-2-yl)-8,9-dihydro-6H-5,9-methanopyrido[2,3-b] [1,4] diazocine-10(7H)-carboxamide] the Emax was at least 150% and the “TRP Activity (EC1.5, concentration of compound required to increase SIRT1 activity by 50% over control)” value was “A (EC1.5<1 μM)”.
